Reference: patent US20020132817A1, “Heterocyclic compounds, their production and use” (priority 1998, published 2002)
Marks after values point to notes of the source that are not given here.

Legend:
[1] = tested on: plasma extravasation induced by capsaicin in trachea of guinea pigs; assay: Inhibitory effect on plasma extravasation induced by capsaicin in trachea of guinea pigs; format: in vivo; settings: for ED50: Cavia porcellus, iv, 5 minutes before capsaicin, Evans' blue dye in trachea, read-out: ID50, μg/kg, i.v.
Method: Guinea pigs (Hartley type white male guinea pige), (n=6) were anesthetized with 35 mg/kg of pentobarbital injected intraperitoneally (i.p.), then test compounds were administered intravenously (i.v.). After 5 minutes, a mixed solution of capsaicin ([…]) and Evans' blue dye (20 mg/kg) was administered intravenously to cause reaction. Ten minutes later, test animals were sacrificed by cutting the aorta, then perfused through pulmonary artery with 50 ml of physiological saline. The trachea was excised, and its wet weight was measure. The trachea was incubated at room temperature in 1 ml of acetone-0.3% sodium sulfate (7:3) overnight and Evans' blue dye was extracted from the trachea. The extract solution was centrifuged at 2800 rpm for 5 minutes. The amount of Evans' blue dye in the supernatant was quantified by measuring absorbance at […].
The reaction of accelerating the permeability of blood vessels is expressed in terms of the amount of Evans' blue (μg) per trachea unit weight (g) and the effect of drug was evaluated by calculating the degree of inhibition (% inhibition) according to the following equation: […]

[2] = molecular target: T1, substance P receptor (Homo sapiens, UniProt P25103); assay: Radioligand receptor binding inhibitory activity using receptor from human lymphoblast cells (IM-9); settings: 125I-BHSP radioligand, receptor from IM-9 cells, 25° C. for 30 minutes
T1 construct: The receptor was prepared from human lymphoblast cells (IM-9); endogenous in cells; host or cells: IM-9 human lymphoblast cells (membrane preparation)
T1 sequence (P25103 whole entry): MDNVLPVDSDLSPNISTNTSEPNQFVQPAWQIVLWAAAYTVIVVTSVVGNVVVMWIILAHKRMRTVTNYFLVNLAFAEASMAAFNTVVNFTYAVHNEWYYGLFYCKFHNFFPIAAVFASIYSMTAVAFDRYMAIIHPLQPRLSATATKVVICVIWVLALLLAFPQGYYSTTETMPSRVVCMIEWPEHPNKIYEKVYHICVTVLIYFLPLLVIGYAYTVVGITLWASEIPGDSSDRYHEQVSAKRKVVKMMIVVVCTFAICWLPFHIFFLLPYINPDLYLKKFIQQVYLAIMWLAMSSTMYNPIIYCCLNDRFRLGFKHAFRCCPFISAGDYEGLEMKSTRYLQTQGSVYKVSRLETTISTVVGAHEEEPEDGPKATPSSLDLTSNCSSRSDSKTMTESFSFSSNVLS
Method: Radioligand receptor binding inhibitory activity Binding inhibitory activity using receptor from human lymphoblast cells (IM-9)
The receptor was prepared from human lymphoblast cells (IM-9). IM-9 cells (2×10^5 cells/ml) were inoculated and incubated for 3 days (one liter), which was then subjected to centrifuge for 5 minutes at 500×g to obtain cell pellets. […] The residue was washed twice with 30 ml of the above-mentioned buffer, which was then preserved frozen (−80° C.) as a specimen of the receptor.
The specimen was suspended in a reaction buffer (50 mM Tri-HCl buffer (pH 7.4), 0.02% bovine serum albumin, 1 mM phenylmethylsulfonyl fluoride, […], […] bacitracin, 3 mM manganese chloride) and 100 ul portion was the suspension was used in the reaction. […] The amount of nonspecific binding was determined by adding substance P at a final concentration of 2×10^−6M. After the reaction, using a cell harvester (290 PHD, Cambridge Technology, Inc, U.S.A.), rapid filtration was carried out through a glass filter (GF/B, Whatman, U.S.A.) to stop the reaction. After washing three times with 250 ul of 50 mM of Tris-HCl buffer (pH 7.4) containing 0.02% bovine serum albumin, the radioactivity remaining on the filter was determined with a gamma counter. Before use, the filter was immersed in 0.1% polyethyleneimine for 24 hours and air-dried.

[3] = molecular target: T2, human NK2 receptor (Homo sapiens, UniProt P21452); assay: Binding inhibitory activity toward human NK2 receptor; settings: (2-[125I]iodohistidyl1)Neurokinin A 0.1 nM, receptor expressed in COS-7 cells, room temperature 60 min
T2 construct: expressed in transfected cells; host or cells: COS-7 cells, transient transfection with an SRa-promoter expression vector; membrane preparation
T2 sequence (P21452 1-398): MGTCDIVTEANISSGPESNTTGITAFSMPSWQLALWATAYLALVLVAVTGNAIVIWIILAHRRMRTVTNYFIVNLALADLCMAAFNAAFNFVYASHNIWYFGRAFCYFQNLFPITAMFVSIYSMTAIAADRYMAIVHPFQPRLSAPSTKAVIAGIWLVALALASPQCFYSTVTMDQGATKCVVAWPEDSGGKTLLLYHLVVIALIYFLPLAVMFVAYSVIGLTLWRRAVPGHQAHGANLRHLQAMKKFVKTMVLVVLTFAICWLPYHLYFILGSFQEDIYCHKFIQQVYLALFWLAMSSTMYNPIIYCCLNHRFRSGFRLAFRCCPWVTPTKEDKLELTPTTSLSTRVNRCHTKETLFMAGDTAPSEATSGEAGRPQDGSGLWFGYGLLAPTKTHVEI

SMILES | IC50 [2] [nM] | melting point [°C] | IC50 [3] [nM] | Degree of Inhibition (%) ([1]; Dosage (i.v.) 100 μg/kg) | ED50 [1] [µg/kg]
Cc1ccc(-c2c3n(c(=O)c4ncccc24)CCCCN(Cc2cc(C(F)(F)F)cc(C(F)(F)F)c2)C3=O)cc1 [Reference Example 57, 7-[3,5-Bis(trifluoromethyl)benzyl]-6,7,8,9,10,11-hexahydro-5-(4-methylphenyl)-6,13-dioxo-13H-[1,4]diazocino[2,1-g][1,7]naphthyridine] | 0.76 |  |  |  | 4.2
O=C1c2c(-c3ccccc3)c3cccnc3c(=O)n2CCCCN1Cc1cc(C(F)(F)F)cc(C(F)(F)F)c1 [Reference Example 62, 7-[3,5-Bis(trifluoromethyl)benzyl]-6,7,8,9,10,11-hexahydro-6,13-dioxo-5-phenyl-13H-[1,4]diazocino[2,1-g][1,7]naphthyridine] | 1.2 |  |  |  | 3.2
C[C@H]1CN(Cc2cc(C(F)(F)F)cc(C(F)(F)F)c2)C(=O)c2c(-c3ccccc3)c3cccnc3c(=O)n2C1 [Reference Example 67, (9S)-7-[3,5-Bis(trifluoromethyl)benzyl]-6,7,8,9,10,12-hexahydro-9-methyl-6,12-dioxo-5-phenyl[1,4]diazepino[2,1-g][1,7]naphthyridine] | 0.17 | 150 to 152 |  |  | 1.6
Cc1ccc(-c2c3n(c(=O)c4ncccc24)C[C@H](C)CN(Cc2cc(C(F)(F)F)cc(C(F)(F)F)c2)C3=O)cc1 [Reference Example 66, (9R)-7-[3,5-Bis(trifluoromethyl)benzyl]-6,7,8,9,10,12-hexahydro-9-methyl-5-(4-methylphenyl)-6,12-dioxo[1,4]diazepino[2,1-g][1,7]naphthyridine] |  | 179 to 180 |  |  | 41
Cc1ccc(-c2c3n(c(=O)c4ncccc24)CCCN(Cc2cc(C(F)(F)F)cc(C(F)(F)F)c2)C3=O)cc1 [Reference Example 56, 7-[3,5-Bis(trifluoromethyl)benzyl]-6,7,8,9,10,12-hexahydro-5-(4-methylphenyl)-6,12-dioxo[1,4]diazepino[2,1-g][1,7]naphthyridine] | 0.28 | 194 to 195 |  |  | 7.2

Continued, in another order:

IC50 [2] [nM] | melting point [°C] | IC50 [3] [nM] | SMILES | Degree of Inhibition (%) ([1]; Dosage (i.v.) 100 μg/kg) | ED50 [1] [µg/kg]
1.1 |  |  | Cc1cnc2c(c1-c1ccccc1)C(=O)N(Cc1cc(C(F)(F)F)cc(C(F)(F)F)c1)CCO2 [Reference Example 77, 4-[3,5-Bis(trifluoromethyl)benzyl]-2,3,4,5-tetrahydro-7-methyl-5-oxo-6-phenylpyrido[3,2-f][1,4]oxazepine] | 64.0* % | 
0.23 | 245 to 247 |  | C[C@@H]1CCn2c(c(-c3ccccc3)c3cccnc3c2=O)C(=O)N(Cc2cc(C(F)(F)F)cc(C(F)(F)F)c2)C1 [Reference Example 71, (9R)-7-[3,5-Bis(trifluoromethyl)benzyl]-6,7,8,9,10,11-hexahydro-9-methyl-6,13-dioxo-5-phenyl-13H-[1,4]diazocino[2,1-g] [1,7]naphthyridine] |  | 1.9
0.84 | 240 to 241 |  | C[C@@H]1CCn2c(c(-c3ccc(CO)cc3)c3cccnc3c2=O)C(=O)N(Cc2cc(C(F)(F)F)cc(C(F)(F)F)c2)C1 [Reference Example 137, (9R)-7-[3,5-bis(trifluoromethyl)benzyl]-6,7,8,9,10,11-hexahydro-5-(4-hydroxymethylphenyl)-9-methyl-6,13-dioxo-13H-[1,4]diazosino[2,1-g][1,7]napththylidine] |  | 2.5
 | 151 to 153 | 9.5 | Cc1cc(-c2ccccc2)c2c(n1)OCCN(Cc1cc(C(F)(F)F)cc(C(F)(F)F)c1)C2=O [Reference Example 87, 4-[3,5-Bis(trifluoromethyl)benzyl]-2,3,4,5-tetrahydro-8-methyl-5-oxo-6-phenylpyrido[3,2-f][1,4]oxazepine] |  | 
 |  | 6.2 | O=C1c2c(-c3ccccc3)c3cccnc3c(=O)n2CCCCN1Cc1ccccc1 [Reference Example 81, 7-Benzyl-6,7,8,9,10,11-hexahydro-6,13-dioxo-5-phenyl-13H-[1,4]diazocino[2,1-g][1,7]naphthyridine] |  | 
 | 188 to 189 | 7.5 | O=C1c2c(-c3ccccc3)ccnc2OCCCN1Cc1cc(C(F)(F)F)cc(C(F)(F)F)c1 [Reference Example 76, 5-[3,5-Bis(trifluoromethyl)benzyl]-2,3,4,5-tetrahydro-6-oxo-7-phenyl-6H-pyrido[2,3-b][1,5]oxazocine] |  | 
